Drawing on patent US11999727B2 (Tango Therapeutics, Inc., priority 2020, dated 2024), this text covers IC50 and MTAP intact/deleted ratio for 18 compounds.

Where only a bound is given, the exact number is not on record here.

For assay [1], the target named is T1, PRMT5 (Homo sapiens, UniProt O14744).
T1 construct: purchased Viva (custom protein)
The experiment in a line: PRMT5 biochemical IC50 assay with SAM as cofactor. Particulars: PRMT5, SAM as cofactor; read-out: SAM IC50.

Assay [2] addresses T1, PRMT5. The experiment in a line: PRMT5 biochemical IC50 assay with no cofactor. Particulars: PRMT5, no cofactor; read-out: No Cofactor/rel IC50. From the text:
Table 1 indicates IC50 values (μM) against PRMT5 for exemplary compounds in the presence of SAM as cofactor, with no cofactor, and with MTA as cofactor, respectively (columns 4-6). […] Ki values can be calculated from the IC50 values as described in the Examples section. As detailed in the Examples section, for the assay performed in the presence of SAM, IC50=Ki×1.5 (Ki=IC50/1.5).

Assay [3] deals with T1, PRMT5. Nature of the assay: PRMT5 biochemical IC50 assay with MTA as cofactor. Particulars: PRMT5, MTA as cofactor; read-out: MTA IC50.
The subject of assay [4] is HAP1 MTAP-intact cell line. Nature of the assay: SDMA in-cell western assay, HAP1 MTAP-intact. Particulars: Homo sapiens, HAP1, SDMA in-cell western, HAP1 MTAP-intact; read-out: MTAP HAP1 intact IC50. The assay is classed as cell-based. The gist of the method: (§1)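 MTAP-null vs endogenous-MTAP HAP1 isogenic cells; in-cell western SDMA readout; IC50 per line.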
Assay [5] deals with HAP1 MTAP-deleted cell line. Nature of the assay: SDMA in-cell western assay, HAP1 MTAP-deleted. The assay is classed as cell-based. The note with it: for IC50: Homo sapiens, HAP1, SDMA in-cell western, HAP1 MTAP-deleted, read-out: HAP 1 MTAP deleted IC50; for MTAP intact/deleted ratio: IC50 ratio HAP1 MTAP-intact / HAP1 MTAP-deleted, SDMA in-cell western. The gist of the method:
as §1

Assay [6] relates to HAP1 MTAP-deleted cell line. Nature of the assay: Viability assay, MTAP-deleted cell line. The assay is classed as cell-based. Particulars: Homo sapiens, HAP1, viability IC50, MTAP-deleted cell line; read-out: HAP1 MTAP deleted viability. The text has this: Table 1 additionally indicates IC50 values in a viability assay for the MTAP-deleted cell line (column 10), indicating the effect of treatment with compound on cell survival.

T1 sequence (O14744 whole entry): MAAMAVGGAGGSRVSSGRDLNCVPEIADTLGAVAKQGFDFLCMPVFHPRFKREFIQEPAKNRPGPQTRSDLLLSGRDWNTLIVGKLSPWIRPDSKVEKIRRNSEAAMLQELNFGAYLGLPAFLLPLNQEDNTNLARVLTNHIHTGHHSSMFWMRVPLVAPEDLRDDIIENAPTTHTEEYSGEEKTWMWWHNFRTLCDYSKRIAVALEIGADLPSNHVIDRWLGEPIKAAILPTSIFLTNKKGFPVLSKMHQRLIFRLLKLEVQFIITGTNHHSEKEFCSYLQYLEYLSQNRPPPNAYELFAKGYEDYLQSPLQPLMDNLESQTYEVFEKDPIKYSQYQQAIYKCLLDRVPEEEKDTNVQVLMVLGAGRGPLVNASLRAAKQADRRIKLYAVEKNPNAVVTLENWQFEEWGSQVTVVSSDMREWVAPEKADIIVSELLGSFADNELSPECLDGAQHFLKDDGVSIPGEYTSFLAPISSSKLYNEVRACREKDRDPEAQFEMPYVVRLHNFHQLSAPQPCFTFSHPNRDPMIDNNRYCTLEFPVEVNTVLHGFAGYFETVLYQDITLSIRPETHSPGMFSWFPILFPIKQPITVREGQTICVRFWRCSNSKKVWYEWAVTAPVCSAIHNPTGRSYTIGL
T1 sequence (Q9BQA1 whole entry partner): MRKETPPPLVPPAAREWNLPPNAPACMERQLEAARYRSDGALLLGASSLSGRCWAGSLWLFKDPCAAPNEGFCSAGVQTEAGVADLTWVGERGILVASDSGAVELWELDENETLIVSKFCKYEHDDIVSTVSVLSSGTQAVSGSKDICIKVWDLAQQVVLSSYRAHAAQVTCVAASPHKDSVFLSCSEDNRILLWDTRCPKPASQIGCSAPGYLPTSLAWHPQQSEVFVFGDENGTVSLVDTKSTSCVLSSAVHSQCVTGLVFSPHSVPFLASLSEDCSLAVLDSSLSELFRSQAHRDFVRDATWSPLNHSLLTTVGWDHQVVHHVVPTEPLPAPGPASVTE

Consider `CC(=O)N[C@H]1C[C@H]([C@@H]2CC[C@H](C)CN2C(=O)C(=O)Nc2cnc(N)c(C)c2)C1` (single isomer, unassigned) [Compound 562], for which the IC50 is above 0.5 µM on PRMT5 [1]; above 0.5 µM at PRMT5 [2]; above 0.5 µM on PRMT5 [3]; above 1 µM in assay [4]; above 1 µM in assay [5]; above 10 µM in assay [6]. In addition, the MTAP intact/deleted ratio result in assay [5] is recorded as “C (an IC50 ratio of less than 3 fold)”.
In the case of `CC(=O)N[C@H]1C[C@H]([C@H]2CC[C@H](C)CN2C(=O)C(=O)Nc2cnc(N)c(C)c2)C1` (single isomer, unassigned) [Compound 563], the IC50 was above 0.5 µM on PRMT5 [1]; above 0.5 µM on PRMT5 [2]; above 0.5 µM on PRMT5 [3]; above 1 µM in assay [4]; above 1 µM in assay [5]; above 10 µM in assay [6]. Moreover, the MTAP intact/deleted ratio entry in assay [5] is recorded as “C (an IC50 ratio of less than 3 fold)”.
On to `CC(=O)N[C@H]1C[C@H]([C@H]2CC[C@@H](C)CN2C(=O)C(=O)Nc2cnc(N)c(C)c2)C1` (single isomer, unassigned) [Compound 564], for which the IC50 at PRMT5 [1] was 0.05 to 0.5 µM; on PRMT5 [2], above 0.5 µM; on PRMT5 [3], 0.05 to 0.5 µM; in assay [4], above 1 µM; in assay [5], above 1 µM; in assay [6], above 10 µM. In addition, the MTAP intact/deleted ratio entry in assay [5] is on record as “B (an IC50 ratio greater than or equal to 3 fold but lower than 10 fold)”.
Take `CC[C@@H]1CC[C@H](c2ccccc2)N(C(=O)C(=O)Nc2cncc(C(N)=O)c2)C1` (single isomer, unassigned) [Compound 565]: the IC50 at PRMT5 [1] is 0.05 to 0.5 µM; at PRMT5 [2], above 0.5 µM; on PRMT5 [3], 0.05 to 0.5 µM; in assay [4], above 1 µM; in assay [5] it was 0.1 to 1 µM; in assay [6], above 10 µM. Besides, in assay [5], the MTAP intact/deleted ratio entry is “A (an IC50 ratio greater than or equal to 10 fold)”.
Regarding `Cc1cc(NC(=O)C(=O)N2C[C@@H](C)CC[C@@H]2[C@H]2CCC[C@@H](O)C2)cnc1N` (single isomer, unassigned) [Compound 566], the IC50 at PRMT5 [1] is above 0.5 µM; on PRMT5 [2], 0.05 to 0.5 µM; at PRMT5 [3], 0.05 to 0.5 µM; in assay [4], above 1 µM; in assay [5], 0.1 to 1 µM; in assay [6], 1 to 10 µM. Also, in assay [5], the MTAP intact/deleted ratio entry was “A (an IC50 ratio greater than or equal to 10 fold)”.
For the compound `Cc1cc(NC(=O)C(=O)N2C[C@H](C)CC[C@H]2[C@@H]2CCC[C@H](O)C2)cnc1N` (single isomer, unassigned) [Compound 567], the IC50 on PRMT5 [1] was above 0.5 µM; on PRMT5 [2], above 0.5 µM; on PRMT5 [3] it was above 0.5 µM; in assay [4], above 1 µM; in assay [5] it was above 1 µM; in assay [6], above 10 µM. Besides, in assay [5], the MTAP intact/deleted ratio result is “C (an IC50 ratio of less than 3 fold)”.
Consider `Cc1cc(NC(=O)C(=O)N2C[C@@H](C)CC[C@@H]2[C@@H]2CCC[C@@H](O)C2)cnc1N` (single isomer, unassigned) [Compound 568], for which the IC50 on PRMT5 [1] was above 0.5 µM; at PRMT5 [2] it was above 0.5 µM; at PRMT5 [3], above 0.5 µM; in assay [4], above 1 µM; in assay [5] it was above 1 µM; in assay [6], above 10 µM. For the same compound, in assay [5], the MTAP intact/deleted ratio result is recorded as “C (an IC50 ratio of less than 3 fold)”.
`C[C@H]1CC[C@H](c2ccc(Cl)cc2)N(C(=O)C(=O)Nc2cncc(C(N)=O)c2)C1` (single isomer, unassigned) [Compound 569]: the IC50 on PRMT5 [1] was above 0.5 µM; on PRMT5 [2], above 0.5 µM; on PRMT5 [3] it was above 0.5 µM; in assay [4], above 1 µM; in assay [5], above 1 µM; in assay [6] it was above 10 µM. Moreover, the MTAP intact/deleted ratio entry in assay [5] is reported as “C (an IC50 ratio of less than 3 fold)”.
Turning to `C[C@@H]1CC[C@@H](c2ccc(Cl)cc2)N(C(=O)C(=O)Nc2cncc(C(N)=O)c2)C1` (single isomer, unassigned) [Compound 570], the IC50 on PRMT5 [1] was 0.05 to 0.5 µM; on PRMT5 [2], 0.05 to 0.5 µM; on PRMT5 [3], below 0.05 µM; in assay [4] it was above 1 µM; in assay [5] it was below 0.1 µM; in assay [6], 1 to 10 µM. Also, the MTAP intact/deleted ratio entry in assay [5] is on record as “A (an IC50 ratio greater than or equal to 10 fold)”.
Consider `C[C@@H]1CC[C@@H](c2cc3cn[nH]c3cc2F)N(C(=O)C(=O)Nc2cncc(C(N)=O)c2)C1` (single isomer, unassigned) [Compound 571], for which the IC50 on PRMT5 [1] was above 0.5 µM; at PRMT5 [2], above 0.5 µM; at PRMT5 [3] it was above 0.5 µM; in assay [4] it was above 1 µM; in assay [5], above 1 µM; in assay [6], above 10 µM. In assay [5], the MTAP intact/deleted ratio result was “C (an IC50 ratio of less than 3 fold)”.
Take `Cc1cc([C@@H]2CC[C@@H](C)CN2C(=O)C(=O)Nc2cnc(N)c(C)c2)ccc1O` (single isomer, unassigned) [Compound 572]: the IC50 was below 0.05 µM on PRMT5 [1]; 0.05 to 0.5 µM at PRMT5 [2]; 0.05 to 0.5 µM at PRMT5 [3]; below 0.1 µM in assay [4]; below 0.1 µM in assay [5]; below 1 µM in assay [6]. Also, the MTAP intact/deleted ratio result in assay [5] is given as “A (an IC50 ratio greater than or equal to 10 fold)”.
`Cc1cc(NC(=O)C(=O)N2C[C@@H](C)CC[C@@H]2c2cnc3[nH]ncc3c2)cnc1N` (single isomer, unassigned) [Compound 573]: the IC50 at PRMT5 [1] was above 0.5 µM; at PRMT5 [2] it was above 0.5 µM; on PRMT5 [3] it was above 0.5 µM; in assay [4], above 1 µM; in assay [5], above 1 µM; in assay [6], above 10 µM. For the same compound, the MTAP intact/deleted ratio entry in assay [5] is given as “C (an IC50 ratio of less than 3 fold)”.
With `C[C@H]1CC[C@H](c2cnc3[nH]ncc3c2)N(C(=O)C(=O)Nc2cncc(C(N)=O)c2)C1` (single isomer, unassigned) [Compound 574], the IC50 at PRMT5 [1] is 0.05 to 0.5 µM; at PRMT5 [2], 0.05 to 0.5 µM; on PRMT5 [3] it was 0.05 to 0.5 µM; in assay [4] it was above 1 µM; in assay [5] it was above 1 µM; in assay [6] it was above 10 µM. Besides, in assay [5], the MTAP intact/deleted ratio result is “B (an IC50 ratio greater than or equal to 3 fold but lower than 10 fold)”.
Take `Cc1cc(NC(=O)C(=O)N2C[C@@H](C)CC[C@@H]2c2ccc(C(F)(F)F)cc2)cnc1N` (single isomer, unassigned) [Compound 575]: the IC50 at PRMT5 [1] is above 0.5 µM; on PRMT5 [2], above 0.5 µM; on PRMT5 [3], above 0.5 µM; in assay [4] it was above 1 µM; in assay [5] it was above 1 µM; in assay [6] it was above 10 µM. In assay [5], the MTAP intact/deleted ratio entry is recorded as “C (an IC50 ratio of less than 3 fold)”.
As to `CC[C@@H]1CC[C@@H](c2ccccc2)N(C(=O)C(=O)Nc2cncc(C(N)=O)c2)C1` (single isomer, unassigned) [Compound 576], the IC50 was above 0.5 µM at PRMT5 [1]; above 0.5 µM at PRMT5 [2]; above 0.5 µM on PRMT5 [3]; above 1 µM in assay [4]; above 1 µM in assay [5]; above 10 µM in assay [6]. The MTAP intact/deleted ratio entry in assay [5] was “C (an IC50 ratio of less than 3 fold)”.
As to `C[C@@H]1CC[C@@H](c2ccccn2)N(C(=O)C(=O)Nc2cncc(C(N)=O)c2)C1` (single isomer, unassigned) [Compound 578], the IC50 was above 0.5 µM on PRMT5 [1]; above 0.5 µM on PRMT5 [2]; above 0.5 µM at PRMT5 [3]; above 1 µM in assay [4]; above 1 µM in assay [5]; above 10 µM in assay [6]. In addition, in assay [5], the MTAP intact/deleted ratio result was “C (an IC50 ratio of less than 3 fold)”.
`CCc1cc(NC(=O)C(=O)N2C[C@H](C)CC[C@H]2c2ccc3[nH]ncc3c2)cnc1N` (single isomer, unassigned) [Compound 579]: the IC50 was above 0.5 µM at PRMT5 [1]; above 0.5 µM at PRMT5 [2]; above 0.5 µM on PRMT5 [3]; above 1 µM in assay [4]; above 1 µM in assay [5]; above 10 µM in assay [6]. The MTAP intact/deleted ratio result in assay [5] was “B (an IC50 ratio greater than or equal to 3 fold but lower than 10 fold)”.
On to `Cc1cc(NC(=O)C(=O)N2C[C@H](C)CC[C@H]2c2ccc3c(c2)CNC3=O)cnc1N` (single isomer, unassigned) [Compound 581], for which the IC50 at PRMT5 [1] was below 0.05 µM; at PRMT5 [2] it was 0.05 to 0.5 µM; at PRMT5 [3] it was 0.05 to 0.5 µM; in assay [4], 0.1 to 1 µM; in assay [5], below 0.1 µM; in assay [6], 1 to 10 µM. For the same compound, in assay [5], the MTAP intact/deleted ratio result is listed as “A (an IC50 ratio greater than or equal to 10 fold)”.
